PubChem BioAssay AID1259407 (Chemical Carcinogenesis Research Information System (CCRIS), 2018)
Calls of active or inactive are those of the source. How the calls were made is not given here.

System: CCRIS mutagenicity, Ames/micronucleus/aberration tests
Test: CCRIS mutagenicity studies
[1] = Test System: AMES SALMONELLA TYPHIMURIUM, Strain/Indicator: TA97, Metabolic Activation: HAMSTER, LIVER, S-9, AROCLOR 1254 (10%), Method: PREINCUBATION
[2] = Test System: AMES SALMONELLA TYPHIMURIUM, Strain/Indicator: TA97, Metabolic Activation: NONE, Method: PREINCUBATION
[3] = Test System: AMES SALMONELLA TYPHIMURIUM, Strain/Indicator: TA97, Metabolic Activation: RAT, LIVER, S-9, AROCLOR 1254 (10%), Method: PREINCUBATION
[4] = Test System: AMES SALMONELLA TYPHIMURIUM, Strain/Indicator: TA98, Metabolic Activation: HAMSTER, LIVER, S-9, AROCLOR 1254 (10%), Method: PREINCUBATION
[5] = Test System: AMES SALMONELLA TYPHIMURIUM, Strain/Indicator: TA98, Metabolic Activation: RAT, LIVER, S-9, AROCLOR 1254 (10%), Method: PREINCUBATION
[6] = Test System: AMES SALMONELLA TYPHIMURIUM, Strain/Indicator: TA100, Metabolic Activation: HAMSTER, LIVER, S-9, AROCLOR 1254 (10%), Method: PREINCUBATION
[7] = Test System: AMES SALMONELLA TYPHIMURIUM, Strain/Indicator: TA100, Metabolic Activation: NONE, Method: PREINCUBATION
[8] = Test System: AMES SALMONELLA TYPHIMURIUM, Strain/Indicator: TA100, Metabolic Activation: RAT, LIVER, S-9, AROCLOR 1254 (10%), Method: PREINCUBATION
[9] = Test System: AMES SALMONELLA TYPHIMURIUM, Strain/Indicator: TA1535, Metabolic Activation: HAMSTER, LIVER, S-9, AROCLOR 1254 (10%), Method: PREINCUBATION
[10] = Test System: AMES SALMONELLA TYPHIMURIUM, Strain/Indicator: TA1535, Metabolic Activation: NONE, Method: PREINCUBATION
[11] = Test System: AMES SALMONELLA TYPHIMURIUM, Strain/Indicator: TA1535, Metabolic Activation: RAT, LIVER, S-9, AROCLOR 1254 (10%), Method: PREINCUBATION
[12] = Test System: AMES SALMONELLA TYPHIMURIUM, Strain/Indicator: TA98, Metabolic Activation: NONE, Method: PREINCUBATION
[13] = Test System: AMES SALMONELLA TYPHIMURIUM, Strain/Indicator: TA98, Metabolic Activation: RAT, LIVER, S-9, AROCLOR 1254, Method: STANDARD PLATE
[14] = Test System: AMES SALMONELLA TYPHIMURIUM, Strain/Indicator: TA100, Metabolic Activation: RAT, LIVER, S-9, AROCLOR 1254, Method: STANDARD PLATE
[15] = Test System: AMES SALMONELLA TYPHIMURIUM, Strain/Indicator: TA98, Metabolic Activation: NONE, Method: STANDARD PLATE
[16] = Test System: AMES SALMONELLA TYPHIMURIUM, Strain/Indicator: TA100, Metabolic Activation: NONE, Method: STANDARD PLATE

Q: What does the source list for `O=C(Cl)c1ccccc1[N+](=O)[O-]`?
A: mutagenic call [1]: active; positive; mutagenic call [2]: active; positive; mutagenic call [3]: active; positive; mutagenic call [4]: active; positive; mutagenic call [5]: active; positive; mutagenic call (Test System: AMES SALMONELLA TYPHIMURIUM, Strain/Indicator: TA98, Metabolic Activation: RAT, LIVER, S-9, KANECHLOR 500, Method: PREINCUBATION): active; positive; mutagenic call [6]: active; positive; mutagenic call [7]: active; positive; mutagenic call [8]: active; positive; mutagenic call (Test System: AMES SALMONELLA TYPHIMURIUM, Strain/Indicator: TA100, Metabolic Activation: RAT, LIVER, S-9, KANECHLOR 500, Method: PREINCUBATION): active; positive; mutagenic call [9]: inactive; negative; mutagenic call [10]: inactive; negative; mutagenic call [11]: inactive; negative

Q: With `Nc1c(Cl)cc(Cl)cc1Cl` as the compound, how does the mutagenic call (End Point: IN VITRO CHROMOSOMAL ABERRATIONS, Test System: CHL CELLS, Metabolic Activation: NONE) read?
A: inactive; negative

Q: What about the mutagenic call (End Point: IN VITRO CHROMOSOMAL ABERRATIONS, Test System: CHL CELLS, Metabolic Activation: RAT, LIVER, S-9, SODIUM PHENOBARBITAL AND 5,6-BENZOFLAVONE) of the same compound?
A: inactive; negative

Q: What about the mutagenic call [1] of the same compound?
A: inactive; negative

Q: What about the mutagenic call (Test System: AMES SALMONELLA TYPHIMURIUM, Strain/Indicator: TA97, Metabolic Activation: HAMSTER, LIVER, S-9, AROCLOR 1254 (30%), Method: PREINCUBATION) of the same compound?
A: inactive; negative

Q: What about the mutagenic call [2] of the same compound?
A: inactive; negative

Q: And the mutagenic call [3]?
A: inactive; negative

Q: What about the mutagenic call (Test System: AMES SALMONELLA TYPHIMURIUM, Strain/Indicator: TA97, Metabolic Activation: RAT, LIVER, S-9, AROCLOR 1254 (30%), Method: PREINCUBATION) of the same compound?
A: inactive; negative

Q: What about the mutagenic call [4] of the same compound?
A: inactive; negative

Q: What about the mutagenic call (Test System: AMES SALMONELLA TYPHIMURIUM, Strain/Indicator: TA98, Metabolic Activation: HAMSTER, LIVER, S-9, AROCLOR 1254 (30%), Method: PREINCUBATION) of the same compound?
A: inactive; negative

Q: What about the mutagenic call [12] of the same compound?
A: inactive; negative

Q: What about the mutagenic call [5] of the same compound?
A: inactive; negative

Q: And the mutagenic call (Test System: AMES SALMONELLA TYPHIMURIUM, Strain/Indicator: TA98, Metabolic Activation: RAT, LIVER, S-9, AROCLOR 1254 (30%), Method: PREINCUBATION)?
A: inactive; negative

Q: What about the mutagenic call (Test System: AMES SALMONELLA TYPHIMURIUM, Strain/Indicator: TA100, Metabolic Activation: HAMSTER, LIVER, S-9, AROCLOR 1254 (5%), Method: PREINCUBATION) of the same compound?
A: inactive; negative

Q: And the mutagenic call [6]?
A: inactive; negative

Q: And the mutagenic call (Test System: AMES SALMONELLA TYPHIMURIUM, Strain/Indicator: TA100, Metabolic Activation: HAMSTER, LIVER, S-9, AROCLOR 1254 (30%), Method: PREINCUBATION)?
A: inactive; negative

Q: What about the mutagenic call [7] of the same compound?
A: inactive; negative

Q: What about the mutagenic call (Test System: AMES SALMONELLA TYPHIMURIUM, Strain/Indicator: TA100, Metabolic Activation: RAT, LIVER, S-9, AROCLOR 1254 (5%), Method: PREINCUBATION) of the same compound?
A: inactive; negative

Q: What about the mutagenic call [8] of the same compound?
A: inactive; negative

Q: And the mutagenic call (Test System: AMES SALMONELLA TYPHIMURIUM, Strain/Indicator: TA100, Metabolic Activation: RAT, LIVER, S-9, AROCLOR 1254 (30%), Method: PREINCUBATION)?
A: inactive; negative

Q: What about the mutagenic call [9] of the same compound?
A: inactive; negative

Q: What about the mutagenic call (Test System: AMES SALMONELLA TYPHIMURIUM, Strain/Indicator: TA1535, Metabolic Activation: HAMSTER, LIVER, S-9, AROCLOR 1254 (30%), Method: PREINCUBATION) of the same compound?
A: inactive; negative

Q: What about the mutagenic call [10] of the same compound?
A: inactive; negative

Q: What about the mutagenic call [11] of the same compound?
A: inactive; negative

Q: And the mutagenic call (Test System: AMES SALMONELLA TYPHIMURIUM, Strain/Indicator: TA1535, Metabolic Activation: RAT, LIVER, S-9, AROCLOR 1254 (30%), Method: PREINCUBATION)?
A: inactive; negative

Q: What about the mutagenic call (Test System: UDS RODENT HEPATOCYTES, Strain/Indicator: THY INCORP (NON-S-PHASE), Metabolic Activation: NONE, Method: AUTORADIOGRAPHY) of the same compound?
A: inactive; negative

Q: Which results are given for `Nc1cccc2cccc(N)c12`?
A: mutagenic call (Test System: AMES SALMONELLA TYPHIMURIUM, Strain/Indicator: TA98, Metabolic Activation: RAT LIVER, CYTOSOL, AROCLOR 1254, Method: STANDARD PLATE): inactive; negative; mutagenic call (Test System: AMES SALMONELLA TYPHIMURIUM, Strain/Indicator: TA98, Metabolic Activation: RAT LIVER, MICROSOMES, AROCLOR 1254, Method: STANDARD PLATE): active; positive

Q: For `O=S(=O)(O)c1ccc2ccc3cccc4ccc1c2c34`, which mutagenic call [13] is on record?
A: inactive; negative

Q: And the mutagenic call [14]?
A: active; positive

Q: Which mutagenic call (Test System: UDS RODENT PRIMARY CELLS, Strain/Indicator: THY INCORP (NON-S-PHASE), Metabolic Activation: NONE, Method: AUTORADIOGRAPHY) does the source give for `Cc1ccc2c([N+](=O)[O-])cc[n+]([O-])c2c1` here?
A: active; positive

Q: What does the source list for `CCC(=O)N(O)c1ccc(/C=C/c2ccccc2)cc1`?
A: mutagenic call [12]: inactive; negative; mutagenic call (Test System: AMES SALMONELLA TYPHIMURIUM, Strain/Indicator: TA98, Metabolic Activation: RAT, LIVER, CYTOSOL, Method: PREINCUBATION): active; positive; mutagenic call (Test System: AMES SALMONELLA TYPHIMURIUM, Strain/Indicator: TA98, Metabolic Activation: RAT, LIVER, MICROSOMES, Method: PREINCUBATION): active; positive

Q: `CC(=O)O[C@H]1[C@@H]2CC(C)(C)CC2=C(C=O)[C@@]2(C=O)C[C@@]12C` was tested. Which mutagenic call [15] did it give?
A: inactive; negative

Q: And the mutagenic call [16]?
A: inactive; negative

Q: And the mutagenic call (Test System: AMES SALMONELLA TYPHIMURIUM, Strain/Indicator: TA2637, Metabolic Activation: NONE, Method: STANDARD PLATE)?
A: inactive; negative

Q: What about the mutagenic call (Test System: CHINESE HAMSTER V-79, Strain/Indicator: V-79/6-THIOGUANINE (HGPRT), Metabolic Activation: NONE) of the same compound?
A: inactive; negative

Q: Which results are given for `O=[N+]([O-])c1ccc2ccc3c4c(cc5ccc1c2c53)CCC=C4`?
A: mutagenic call (Test System: AMES SALMONELLA TYPHIMURIUM, Strain/Indicator: TA98(1,8-DNP6), Metabolic Activation: NONE, Method: STANDARD PLATE): active; positive; mutagenic call (Test System: AMES SALMONELLA TYPHIMURIUM, Strain/Indicator: TA98(1,8-DNP6), Metabolic Activation: RAT, LIVER, S-9, AROCLOR 1254, Method: STANDARD PLATE): active; positive; mutagenic call (Test System: AMES SALMONELLA TYPHIMURIUM, Strain/Indicator: TA98(NR), Metabolic Activation: NONE, Method: STANDARD PLATE): active; positive; mutagenic call (Test System: AMES SALMONELLA TYPHIMURIUM, Strain/Indicator: TA98(NR), Metabolic Activation: RAT, LIVER, S-9, AROCLOR 1254, Method: STANDARD PLATE): active; positive; mutagenic call [15]: active; positive; mutagenic call [13]: active; positive; mutagenic call [16]: inactive; negative; mutagenic call [14]: active; positive

Q: For `Cc1ccc(N=Nc2c(O)ccc3ccccc23)c(S(=O)(=O)O)c1`, which mutagenic call [15] is on record?
A: inactive; negative

Q: What about the mutagenic call (Test System: AMES SALMONELLA TYPHIMURIUM, Strain/Indicator: TA98, Metabolic Activation: RAT, LIVER, S-9, Method: STANDARD PLATE) of the same compound?
A: inactive; negative

Q: And the mutagenic call [16]?
A: inactive; negative

Q: What about the mutagenic call (Test System: AMES SALMONELLA TYPHIMURIUM, Strain/Indicator: TA100, Metabolic Activation: RAT, LIVER, S-9, Method: STANDARD PLATE) of the same compound?
A: inactive; negative
